Reference: article PMC9650428, “Mutagenesis and functional analysis of SotB: A multidrug transporter of the major facilitator superfamily from Escherichia coli” (Frontiers in Microbiology, 2022)
Residue numbers refer to the chain shown, from its start.

Tests used:
SotB = molecular target: T1, SotB (Escherichia coli, UniProt P31122); experiment: SPR affinity assay, wild-type SotB; assay type: binding; settings: SPR, wild-type SotB immobilised, one-to-one model; read-out: KD (equilibrium dissociation constant), binding affinity with SotB
T1 construct: The full-length sotB and lapC genes from the E. coli MG1655 genome were subcloned into the cloning vector pET28a; 8xHis (C); made in house; host or cells: E. coli C43(DE3)
T1 sequence (P31122 whole entry): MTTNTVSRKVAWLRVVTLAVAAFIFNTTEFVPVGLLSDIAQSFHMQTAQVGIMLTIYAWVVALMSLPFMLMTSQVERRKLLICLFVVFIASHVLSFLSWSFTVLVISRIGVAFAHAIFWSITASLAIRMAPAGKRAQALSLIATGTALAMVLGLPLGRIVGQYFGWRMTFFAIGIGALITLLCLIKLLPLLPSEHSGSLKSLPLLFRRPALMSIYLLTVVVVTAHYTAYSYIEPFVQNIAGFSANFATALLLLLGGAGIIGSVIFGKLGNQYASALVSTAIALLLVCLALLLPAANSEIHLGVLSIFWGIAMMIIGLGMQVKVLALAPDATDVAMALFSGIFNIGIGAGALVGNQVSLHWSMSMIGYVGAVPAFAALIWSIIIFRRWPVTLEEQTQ
Procedure: (§1) The instrument used in surface plasmon resonance (SPR) affinity assays was OpenSPR (Nicoya, Canada) and the chip used was COOH sensor chip (Nicoya, Canada). SotB and its variants were as ligands. IPTG, L-arabinose, D-xylose, D-glucose, D-fructose, and D-mannose were as small molecules. Using HSB-EP buffer (10 mM HEPES, 150 mM NaCl, 3 mM EDTA, 0.005% Tween-20, pH7.4) as test buffer and setting flow rate 150 μl/min after installed COOH chip according to OpenSPRTM instrument standard operating procedure. After the signal baseline was reached, loading 200 μl 80% isopropyl alcohol and ran for 10 s to drain bubbles. After reaching baseline, the sample ring was rinsed with HSB-EP buffer and emptied with air. After the signal reached the baseline, loading 200 μl EDC (400 mM, Sigma)/NHS (100 mM, Sigma; 1:1) solution with a flow rate 20 μl/min for 4 min. Then, loading 200 μl ligand (SotB/SotB variants) diluted by the activation buffer (sodium acetate, 10 mM, pH3.5) and ran for 4 min (20 μl/min). Then the sample ring was rinsed with HSB-EP buffer and emptied with air. Loading 200 μl 1 M ethanolamine (Sigma) blocking solution (20 μl/min, 4 min), rinsed the sample ring with HSB-EP buffer, and emptied the sample ring with air. Observing baseline for 5 min to ensure stability. The small molecules were diluted with PBS buffer (2 mM of KH2PO4, 10 mM of Na2HPO4, 2.7 mM of KCl, and 137 mM of NaCl at pH 7.4), and the concentration was shown in the experimental results. The flow rate for small molecules was performed at 20 μl/min. The binding time of small molecule and ligand was 240 s, and the dissociation was 240 s. The analysis software used for the experimental results was TraceDrawer, and the analysis method was one-to-one analysis model.

SotB E29A = molecular target: T2, SotB E29A (Escherichia coli, UniProt P31122, E29A); experiment: SPR affinity assay, SotB variant E29A; settings: read-out: KD, binding affinity with E29A
T2 construct: The full-length sotB and lapC genes from the E. coli MG1655 genome were subcloned into the cloning vector pET28a; 8xHis (C); made in house; host or cells: E. coli C43(DE3)
T2 sequence (P31122 1-396 E29A): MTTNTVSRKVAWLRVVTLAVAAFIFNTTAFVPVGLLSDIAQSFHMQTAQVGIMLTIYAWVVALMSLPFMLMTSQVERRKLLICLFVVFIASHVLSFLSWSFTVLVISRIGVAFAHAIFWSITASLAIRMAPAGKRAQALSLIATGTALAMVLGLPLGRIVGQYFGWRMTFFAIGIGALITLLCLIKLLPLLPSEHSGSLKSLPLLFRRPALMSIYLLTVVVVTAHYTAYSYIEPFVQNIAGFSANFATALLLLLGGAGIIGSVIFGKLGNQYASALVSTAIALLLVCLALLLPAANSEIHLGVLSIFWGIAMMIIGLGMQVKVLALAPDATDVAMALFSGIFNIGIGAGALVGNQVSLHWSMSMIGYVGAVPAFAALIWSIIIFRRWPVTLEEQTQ
Procedure: as §1, with “The small molecules were diluted with PBS buffer (2 mM of KH2PO4, 10 mM of Na2HPO4, 2.7 mM of KCl, and 137 mM of NaCl at pH 7.4), and the concentration was shown in the experimental results. The flow rate for small molecules was performed at 20 μl/min. The binding time of small molecule and ligand was 240 s, and the dissociation was 240 s. The analysis software used for the experimental results was TraceDrawer, and the analysis method was one-to-one analysis model.” left out

SotB S339A = molecular target: T3, SotB S339A (Escherichia coli, UniProt P31122, S339A); experiment: SPR affinity assay, SotB variant S339A; settings: read-out: KD, binding affinity with S339A
T3 construct: The full-length sotB and lapC genes from the E. coli MG1655 genome were subcloned into the cloning vector pET28a; 8xHis (C); made in house; host or cells: E. coli C43(DE3)
T3 sequence (P31122 1-396 S339A): T2 sequence (P31122 1-396 E29A) with A29E, S339A
Procedure: as §1, with “The small molecules were diluted with PBS buffer (2 mM of KH2PO4, 10 mM of Na2HPO4, 2.7 mM of KCl, and 137 mM of NaCl at pH 7.4), and the concentration was shown in the experimental results. The flow rate for small molecules was performed at 20 μl/min. The binding time of small molecule and ligand was 240 s, and the dissociation was 240 s. The analysis software used for the experimental results was TraceDrawer, and the analysis method was one-to-one analysis model.” left out

[1] = tested on: sotB-deletion E. coli MG1655 strain; experiment: Growth curve (L-arabinose inhibition) assay, sotB-deletion MG1655; assay type: cell-based, Escherichia coli
Source text: In the process of sotB gene knockout, two plasmids were introduced into E. coli MG1655 strain: the plasmid pEcCas expressing Cas9 protein (kanamycin resistance) and the plasmid pEcgRNA/sotB expressing related gRNA (spectinomycin resistance). The pEcCas plasmid was successfully eliminated in this study. […] Thus, the sotB-deletion strain has resistance to spectinomycin. In order to carry out the related L-arabinose inhibition assay more strictly, the same plasmid (pEcgRNA/sotB) was then transformed into intact E. coli MG1655 cells, and the growth conditions of the two strains were measured as follows: The E. coli MG1655 cells (intact cells and sotB-deletion cells) were grown in liquid LB medium containing spectinomycin (50 μg/ml) at 37°C for overnight. The cells were then diluted to an OD600 value of 0.8 with liquid LB medium containing spectinomycin (50 μg/ml). Then, the cells were further diluted 1,000 times with liquid LB medium containing spectinomycin (50 μg/ml). The diluted cells were added to a 96-well plate (200 μl/well). Then, L-arabinose was added with final concentrations of 0 μM, 10 μM, 100 μM, 1 mM, 10 mM, and 100 mM, respectively. The 96-well plate was incubated at 37°C, and the OD600 value was measured every 1 h with a microplate reader. […]

How did the Kd (SotB) turn out when `OC1OC[C@H](O)[C@H](O)[C@H]1O` (mixture of isomers) [L-arabinose] was run?
Its Kd is 4.1 mM.

What about the Kd (SotB E29A) of the same compound?
The Kd was 5.1 mM.

What about the Kd (SotB S339A) of the same compound?
The Kd was 3.5 mM.

What about the “Effect on growth (OD600 growth curve)” value ([1]; sotB-deletion MG1655, 10 mM final concentration) of the same compound?
The value was “significantly inhibit”.

And the “Effect on growth (OD600 growth curve)” value ([1]; sotB-deletion MG1655, 100 mM final concentration)?
The value was “significantly inhibit”.
